For 14 molecules, pest or weed control and plant injury results are on record in US20130324412A1, “N-ALKOXYAMIDES OF 6-(SUBSTITUTED PHENYL)-4-AMINOPICOLINATES AND 2-(SUBSTITUTED PHENYL)-6-AMINO-4-PYRIMIDINECARBOXYLATES AND THEIR USE AS SELECTIVE HERBICIDES FOR CROPS” (DOW AGROSCIENCES LLC, priority 2009, published 2013).

What all share (format): in vivo
Test [1] deals with lambsquarters (Chenopodium album). The test is described as follows: General postemergence herbicidal activity, lambsquarters. The conditions noted are these: post-emergence, 336 h, postemergence, after 14 d, 0 = no injury, 100 = complete kill, read-out: CHEAL % Visual Injury; for pest or weed control at 70 g/ha: 70 g ai/ha; for pest or weed control at 140 g/ha: 140 g ai/ha; for pest or weed control at 35 g/ha: 35 g ai/ha. As for the experimental part:
(§1) Seeds or nutlets of the desired test plant species were planted in Sun Gro MetroMix® 360 planting mixture, which typically has a pH of 6.0 to 6.8 and an organic matter content of about 30 percent, in plastic pots with a surface area of 64 square centimeters (cm^2). When required to ensure good germination and healthy plants, a fungicide treatment and/or other chemical or physical treatment was applied. The plants were grown for 7-21 days (d) in a greenhouse with an approximate 15-hour (h) photoperiod which was maintained at about 23-29° C. during the day and 22-28° C. during the night. Nutrients and water were added on a regular basis and supplemental lighting was provided with overhead metal halide 1000-Watt lamps as necessary. The plants were employed for testing when they reached the first or second true leaf stage.
(§2) A weighed amount, determined by the highest rate to be tested, of each test compound was dissolved in 4 mL of a 97:3 volume per volume (v/v) mixture of acetone and dimethyl sulfoxide (DMSO) to obtain concentrated stock solutions. […] The concentrated stock solutions obtained were diluted with 20 mL of an aqueous mixture containing acetone, water, isopropyl alcohol, DMSO, Atplus 411F crop oil concentrate, and Triton X-155 surfactant in a 48.5:39:10:1.5:1.0:0.02 v/v ratio to obtain spray solutions containing the highest application rates. Additional application rates were obtained by serial dilution of 12 mL of the high rate solution into a solution containing 2 mL of 97:3 v/v mixture of acetone and DMSO and 10 mL of an aqueous mixture containing acetone, water, isopropyl alcohol, DMSO, Atplus 411F crop oil concentrate, and Triton X-155 surfactant in a 48.5:39:10:1.5:1.0:0.02 v/v ratio to obtain ½×, ¼×, ⅛× and 1/16× rates of the high rate. Compound requirements are based upon a 12 mL application volume at a rate of 187 liters per hectare (L/ha). Formulated compounds were applied to the plant material with an overhead Mandel track sprayer equipped with 8002E nozzles calibrated to deliver 187 L/ha over an application area of 0.503 square meters (m^2) at a spray height of 18 inches (43 cm) above the average plant canopy height. Control plants were sprayed in the same manner with the solvent blank.
(§3) The treated plants and control plants were placed in a greenhouse as described above and watered by sub-irrigation to prevent wash-off of the test compounds. After 14 d, the condition of the test plants as compared with that of the untreated plants was determined visually and scored on a scale of 0 to 100 percent where 0 corresponds to no injury and 100 corresponds to complete kill.

A further test concerns corn (Zea mays). Briefly: General postemergence herbicidal activity, corn. The conditions noted are these: post-emergence, 336 h, postemergence, after 14 d, 0 = no injury, 100 = complete kill, read-out: ZEAMX % Visual Injury; for plant injury at 70 g/ha: 70 g ai/ha; for plant injury at 140 g/ha: 140 g ai/ha; for plant injury at 35 g/ha: 35 g ai/ha. How it is done:
as §1, §2, §3

Test [2] concerns velvetleaf (Abutilon theophrasti). The test is described as follows: General postemergence herbicidal activity, velvetleaf. The conditions noted are these: post-emergence, 336 h, postemergence, after 14 d, 0 = no injury, 100 = complete kill, read-out: ABUTH % Visual Injury; for pest or weed control at 70 g/ha: 70 g ai/ha; for pest or weed control at 140 g/ha: 140 g ai/ha; for pest or weed control at 35 g/ha: 35 g ai/ha. How it is done: as §1, §2, §3

The test system of test [3] is wild buckwheat (Polygonum convululus). Briefly: General postemergence herbicidal activity, wild buckwheat. To be noted: post-emergence, 336 h, postemergence, after 14 d, 0 = no injury, 100 = complete kill, read-out: POLCO % Visual Injury; for pest or weed control at 70 g/ha: 70 g ai/ha; for pest or weed control at 140 g/ha: 140 g ai/ha; for pest or weed control at 35 g/ha: 35 g ai/ha. How it is done:
as §1, §2, §3

Consider `COc1c(Cl)ccc(-c2cc(N)c(Cl)c(C(=O)NOC3CCCO3)n2)c1F` (centres unmarked) [Compound 17, 4-Amino-3-chloro-6-(4-chloro-2-fluoro-3-methoxyphenyl)-N-(tetrahydrofuran-2-yloxy)picolinamide], for which the pest or weed control at 70 g/ha in test [1], in test [2] and in test [3] was 100% throughout. Besides, the plant injury at 70 g/ha with corn (Zea mays) was determined as 10%.

`COc1c(Cl)ccc(-c2cc(N)c(Cl)c(C(=O)NOC3C=CCCC3)n2)c1F` (centres unmarked) [Compound 18, 4-Amino-3-chloro-6-(4-chloro-2-fluoro-3-methoxyphenyl)-N-(cyclohex-2-enyl-oxy)picolinamide]: the pest or weed control at 140 g/ha in test [1], in test [2] and in test [3] was 100% in each case. In addition, the plant injury at 140 g/ha in the test on corn (Zea mays) stood at 5%.

For `COc1c(Cl)ccc(-c2cc(N)c(Cl)c(C(=O)NOCC(=O)O)n2)c1F` [Compound 19, 2-(4-Amino-3-chloro-6-(4-chloro-2-fluoro-3-methoxyphenyl)picolinamidooxy)acetic acid], the pest or weed control at 35 g/ha in test [1] was 100%; in test [2] it was 85%; in test [3], 85%. Moreover, in the test on corn (Zea mays), the plant injury at 35 g/ha was 25%.

For `COc1c(Cl)ccc(-c2cc(N)c(Cl)c(C(=O)NOc3ccccc3)n2)c1F` [Compound 20, 4-Amino-3-chloro-6-(4-chloro-2-fluoro-3-methoxyphenyl)-N-phenoxypicolinamide], the figures for the pest or weed control at 70 g/ha in test [1], in test [2] and in test [3] were 95%, 100% and 100%, respectively. Moreover, the plant injury at 70 g/ha with corn (Zea mays) worked out at 25%.

In the case of `COc1c(Cl)ccc(-c2cc(N)c(Cl)c(C(=O)NOC(C)(C)C)n2)c1F` [Compound 21, 4-Amino-N-tert-butoxy-3-chloro-6-(4-chloro-2-fluoro-3-methoxyphenyl)picolinamide], the pest or weed control at 140 g/ha in test [1] was determined as 95%; in test [2], 100%; in test [3], 95%. Besides, the plant injury at 140 g/ha in the test with corn (Zea mays) was determined as 0%.

For the molecule `COc1c(Cl)ccc(-c2cc(N)c(Cl)c(C(=O)NOCc3ccc(F)cc3)n2)c1F` [Compound 22, 4-Amino-3-chloro-6-(4-chloro-2-fluoro-3-methoxyphenyl)-N-(4-fluoro-benzyloxy)picolinamide], the pest or weed control at 35 g/ha in test [1], in test [2] and in test [3] was 100% each time. The plant injury at 35 g/ha in the test on corn (Zea mays) came out at 10%.

As for `COc1ccc(CONC(=O)c2nc(-c3ccc(Cl)c(OC)c3F)cc(N)c2Cl)cc1` [Compound 23, 4-Amino-3-chloro-6-(4-chloro-2-fluoro-3-methoxyphenyl)-N-(4-methoxy-benzyloxy)picolinamide], the pest or weed control at 70 g/ha in test [1], in test [2] and in test [3] was 100% in each case. Besides, in the test on corn (Zea mays), the plant injury at 70 g/ha came out at 15%.

In the case of `COc1c(Cl)ccc(-c2cc(N)c(Cl)c(C(=O)N(C)O)n2)c1F` [Compound 24, 4-Amino-3-chloro-6-(4-chloro-2-fluoro-3-methoxyphenyl)-N-hydroxy-N-methylpicolinamide], the values for the pest or weed control at 70 g/ha in test [1], in test [2] and in test [3] were 95%, 90% and 80%, respectively. In addition, the plant injury at 70 g/ha in the test on corn (Zea mays) was determined as 50%.

As for `C=CCONC(=O)c1nc(-c2ccc(Cl)c(OC)c2F)nc(N)c1Cl` [Compound 25, N-(2-Propenyloxy)-6-amino-5-chloro-2-(4-chloro-2-fluoro-3-methoxyphenyl)pyrimidine-4-carboxamide], the pest or weed control at 8.75 g/ha came out at 100% in test [1] (8.75 g ai/ha), 90% in test [2] (8.75 g ai/ha) and 100% in test [3] (8.75 g ai/ha). For the same molecule, the plant injury at 8.75 g/ha in the test on corn (Zea mays) (8.75 g ai/ha) was determined as 60%.

For `C=CCON(C)C(=O)c1nc(-c2ccc(Cl)c(OC)c2F)cc(N)c1Cl` [Compound 26, N-(2-Propenyloxy)-4-amino-3-chloro-6-(4-chloro-2-fluoro-3-methoxyphenyl)-N-methylpicolinamide], the results for the pest or weed control at 140 g/ha in test [1], in test [2] and in test [3] were 100%, 95% and 95%, respectively. The plant injury at 140 g/ha in the test with corn (Zea mays) worked out at 0%.

Consider `C=CCONC(=O)c1nc(Cl)cc(N)c1Cl` [Compound 27, N-(2-Propenyloxy)-4-amino-3,6-dichloropicolinamide], for which the results for the pest or weed control at 280 g/ha in test [1] (280 g ai/ha), in test [2] (280 g ai/ha) and in test [3] (280 g ai/ha) were 100%, 35% and 100%, respectively. The plant injury at 280 g/ha in the test on corn (Zea mays) (280 g ai/ha) was found to be 0%.

For `C=C(Cl)CONC(=O)c1nc(-c2ccc(Cl)c(OC)c2F)cc(N)c1Cl` [Compound 29, 4-Amino-3-chloro-6-(4-chloro-2-fluoro-3-methoxyphenyl)-N-(2-chloro-2-propenyl-oxy)picolinamide], the pest or weed control at 35 g/ha in test [1], in test [2] and in test [3] was 100% each time. Besides, the plant injury at 35 g/ha with corn (Zea mays) stood at 50%.

As for `COc1c(Cl)ccc(-c2cc(N)c(Cl)c(C(=O)NOCC3CC3)n2)c1F` [Compound 32, 4-Amino-3-chloro-6-(4-chloro-2-fluoro-3-methoxyphenyl)-N-(cyclopropyl-methoxy)picolinamide], the pest or weed control at 35 g/ha in test [1], in test [2] and in test [3] was 100% each time. Also, the plant injury at 35 g/ha in the test on corn (Zea mays) worked out at 10%.

Take `C=CC(C)ONC(=O)c1nc(-c2ccc(Cl)c(OC)c2F)cc(N)c1Cl` (centres unmarked) [Compound 33, 4-Amino-N-(but-3-en-2-yloxy)-3-chloro-6-(4-chloro-2-fluoro-3-methoxy-phenyl)picolinamide]: the pest or weed control at 70 g/ha in test [1], in test [2] and in test [3] was 100% throughout. Further, in the test on corn (Zea mays), the plant injury at 70 g/ha is 10%.
